One test addresses cdc2/cyclinB (Homo sapiens, UniProt P06493). Kind of test: Cyclin-Dependent Kinase Assay cdc2/cyclinB.
A further test deals with cdk2/cyclinE (Homo sapiens, UniProt P24941). In words: Cyclin-Dependent Kinase Assay cdk2/cyclinE. The following applies: cdk2/E IC50.
In a further test the target is cdk2/cyclinA (Homo sapiens, UniProt P24941). Kind of test: Cyclin-Dependent Kinase Assay cdk2/cyclinA. The following applies: cdk2/A IC50.
Another test deals with Cdk5/p25 (Homo sapiens, UniProt Q00535). In words: Cyclin-Dependent Kinase 5 High Throughput Screening (cdk5-HTS) Assay. As to conditions: high throughput screen. It is filed as biochemical. The procedure, abridged:
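IC50 determined from 33P incorporation into GST-RbCOOH captured on glutathione plates and read by scintillation counting. Reaction: 1.0 μg/mL Cdk5/p25, 20 μM [γ33P]ATP, pH 7.4 Tris buffer with MgCl2 and DTT, 30 min at room temperature, stopped with EDTA.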

For the next test, the target named is cdk4/D (Homo sapiens, UniProt P11802). Kind of test: Cyclin-Dependent Kinase 4 (cdk4) Assay. It counts as biochemical. The following applies: read-out: cdk4/D IC50.
cdk4/D, sequence (P11802 whole entry): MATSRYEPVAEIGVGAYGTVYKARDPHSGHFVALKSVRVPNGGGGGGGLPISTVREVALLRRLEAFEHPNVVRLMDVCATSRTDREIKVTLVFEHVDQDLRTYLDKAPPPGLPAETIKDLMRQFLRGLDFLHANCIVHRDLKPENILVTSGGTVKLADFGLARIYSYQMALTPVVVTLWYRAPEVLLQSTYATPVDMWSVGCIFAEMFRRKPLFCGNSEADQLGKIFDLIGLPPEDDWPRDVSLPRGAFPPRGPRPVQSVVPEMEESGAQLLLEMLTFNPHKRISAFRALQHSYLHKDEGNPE
cdk4/D, sequence (P24385 whole entry, further chain): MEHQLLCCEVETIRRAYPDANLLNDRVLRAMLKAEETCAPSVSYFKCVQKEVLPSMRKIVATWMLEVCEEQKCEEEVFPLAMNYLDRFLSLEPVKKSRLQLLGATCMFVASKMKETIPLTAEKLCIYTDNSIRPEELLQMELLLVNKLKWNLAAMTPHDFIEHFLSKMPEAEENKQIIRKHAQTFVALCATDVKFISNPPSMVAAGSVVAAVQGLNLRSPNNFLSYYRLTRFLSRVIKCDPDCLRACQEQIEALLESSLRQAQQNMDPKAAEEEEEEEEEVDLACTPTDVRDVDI

Molecules are shown by their SMILES.

cdc2/cyclinB, sequence (P06493 whole entry): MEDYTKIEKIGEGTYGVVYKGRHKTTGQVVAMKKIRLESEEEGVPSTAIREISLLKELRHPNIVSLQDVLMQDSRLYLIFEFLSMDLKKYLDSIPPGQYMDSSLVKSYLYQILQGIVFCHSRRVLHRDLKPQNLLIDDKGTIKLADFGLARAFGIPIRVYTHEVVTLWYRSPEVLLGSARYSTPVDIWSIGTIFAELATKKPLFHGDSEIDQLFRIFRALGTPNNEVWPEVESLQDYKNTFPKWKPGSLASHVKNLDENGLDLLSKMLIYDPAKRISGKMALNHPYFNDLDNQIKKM
cdc2/cyclinB, sequence (P14635 whole entry, further chain): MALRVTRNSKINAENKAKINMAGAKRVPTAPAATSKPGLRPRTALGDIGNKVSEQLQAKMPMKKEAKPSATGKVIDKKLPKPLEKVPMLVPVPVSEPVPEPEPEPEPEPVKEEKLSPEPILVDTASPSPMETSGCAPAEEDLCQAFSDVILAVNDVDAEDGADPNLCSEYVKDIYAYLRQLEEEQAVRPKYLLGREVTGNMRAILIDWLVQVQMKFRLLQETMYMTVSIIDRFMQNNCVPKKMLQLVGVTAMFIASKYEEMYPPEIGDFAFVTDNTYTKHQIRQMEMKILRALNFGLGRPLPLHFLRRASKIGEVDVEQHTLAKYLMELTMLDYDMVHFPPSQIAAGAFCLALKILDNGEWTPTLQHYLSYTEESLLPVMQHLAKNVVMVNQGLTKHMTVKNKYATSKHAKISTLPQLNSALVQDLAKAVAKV
Experimental for cdc2/cyclinB: Cyclin-Dependent Kinase Assays (cdk2/cyclinE, cdk2/cyclinA, cdc2/cyclinB)
All components except the ATP were added to the wells, and the plate was placed on a plate mixer for 2 minutes. The reaction was begun by addition of [^32P]ATP, and the plate was incubated at 25° C. for 15 minutes. The reaction was terminated by addition of 0.1 mL of 20% TCA. The plate was kept at 4° C. for at least 1 hour to allow the substrate to precipitate. The wells were then washed five times with 0.2 mL of 10% TCA and ^32p incorporation determined with a beta plate counter (Wallac Inc., Gaithersburg, Md.).

As to `O=c1ccc2cnc(Nc3ccc4[nH]nnc4c3)nc2n1C1CCCC1` [Example 537, 2-(1H-Benzotriazol-5-ylamino)-8-cyclopentyl-8H-pyrido[2,3-d]pyrimidin-7-one], the IC50 at cdc2/cyclinB is 49.5 nM; on cdk2/cyclinE it was 8.5 nM; on cdk2/cyclinA it was 25.5 nM; at Cdk5/p25 it was 12.3 nM; at cdk4/D, 42 nM.
With `O=c1ccc2cnc(Nc3ccc(O)cc3F)nc2n1C1CCCC1` [Example 538, 8-Cyclopentyl-2-(2-fluoro-4-hydroxy-phenylamino)-8H-pyrido[2,3-d]pyrimidin-7-one], the IC50 stood at 425 nM against cdc2/cyclinB; 72.7 nM against cdk2/cyclinE; 320 nM at cdk2/cyclinA; 145 nM at Cdk5/p25; 338 nM on cdk4/D.
For the compound `O=c1ccc2cnc(Nc3ccc(O)c(Cl)c3)nc2n1C1CCCC1` [Example 539, 2-(3-Chloro-4-hydroxy-phenylamino)-8-cyclopentyl-8H-pyrido[2,3-d]pyrimidin-7-one], the IC50 stood at 28 nM against cdc2/cyclinB; 14.3 nM against cdk2/cyclinE; 33.5 nM against cdk2/cyclinA; 23.5 nM against Cdk5/p25; 23.5 nM on cdk4/D.
As to `O=c1ccc2cnc(Nc3cc(Cl)c(O)c(Cl)c3)nc2n1C1CCCC1` [Example 540, 8-Cyclopentyl-2-(3,5-dichloro-4-hydroxy-phenylamino)-8H-pyrido[2,3-d]pyrimidin-7-one], the IC50 came out at 310 nM against cdc2/cyclinB; 61.7 nM on cdk2/cyclinE; 170 nM against cdk2/cyclinA; 200 nM at Cdk5/p25; 710 nM at cdk4/D.
With `COc1ccc(Nc2ncc3ccc(=O)n(C4CCCC4)c3n2)cc1OC` [Example 541, 8-Cyclopentyl-2-(3,4-dimethoxy-phenylamino)-8H-pyrido[2,3-d]pyrimidin-7-one], the IC50 at cdc2/cyclinB amounted to 59.5 nM; against cdk2/cyclinE, 22.3 nM; against cdk2/cyclinA, 41.5 nM; on Cdk5/p25, 13.5 nM; at cdk4/D, 110 nM.
Turning to `COc1cc(Nc2ncc3ccc(=O)n(C4CCCC4)c3n2)cc(C(F)(F)F)c1` [Example 543, 8-Cyclopentyl-2-(3-methoxy-5-trifluoromethyl-phenylamino)-8H-pyrido[2,3-d]pyrimidin-7-one], the IC50 at cdc2/cyclinB was determined as 550 nM; against cdk2/cyclinE, 500 nM; at cdk2/cyclinA it was 1700 nM; against Cdk5/p25 it was 210 nM; on cdk4/D, 280 nM.
As to `Cc1cc(C)cc(Nc2ncc3ccc(=O)n(C4CCCC4)c3n2)c1` [Example 544, 8-Cyclopentyl-2-(3,5-dimethyl-phenylamino)-8H-pyrido[2,3-d]pyrimidin-7-one], the IC50 was 85 nM at cdc2/cyclinB; 82 nM at cdk2/cyclinE; 350 nM on cdk2/cyclinA; 23 nM on Cdk5/p25; 120 nM on cdk4/D.
`Cc1ccc(Nc2ncc3ccc(=O)n(C4CCCC4)c3n2)cc1Cl` [Example 545, 2-(3-Chloro-4-methyl-phenylamino)-8-cyclopentyl-8H-pyrido[2,3-d]pyrimidin-7-one]: the IC50 at cdc2/cyclinB amounted to 180 nM; against cdk2/cyclinE it was 140 nM; on cdk2/cyclinA, 310 nM; against Cdk5/p25, 25 nM; at cdk4/D, 55 nM.
For `O=c1ccc2cnc(Nc3ccc(Cl)c(C(F)(F)F)c3)nc2n1C1CCCC1` [Example 546, 2-(4-Chloro-3-trifluoromethyl-phenylamino)-8-cyclopentyl-8H-pyrido[2,3-d]pyrimidin-7-one], in that order: 555 nM, 415 nM, 1340 nM, 64 nM and 1390 nM.
`NS(=O)(=O)c1cccc(Nc2ncc3ccc(=O)n(C4CCCC4)c3n2)c1` [Example 547, 3-(8-Cyclopentyl-7-oxo-7,8-dihydro-pyrido[2,3-d]pyrimidin-2-ylamino)-benzenesulfonamide]: the IC50 on cdc2/cyclinB came out at 300 nM; on cdk2/cyclinE, 110 nM; against cdk2/cyclinA, 590 nM; against Cdk5/p25, 66 nM; on cdk4/D, 54 nM.
Turning to `O=c1ccc2cnc(Nc3cc(F)cc(F)c3)nc2n1C1CCCC1` [Example 548, 8-Cyclopentyl-2-(3,5-difluoro-phenylamino)-8H-pyrido[2,3-d]pyrimidin-7-one], the IC50 came to 290 nM against cdc2/cyclinB; 180 nM at cdk2/cyclinE; 200 nM against cdk2/cyclinA; 99 nM at Cdk5/p25; 180 nM at cdk4/D.
`Cc1ccc(Nc2ncc3ccc(=O)n(C4CCCC4)c3n2)cc1C` [Example 549, 8-Cyclopentyl-2-(3,4-dimethyl-phenylamino)-8H-pyrido[2,3-d]pyrimidin-7-one]: the IC50 against cdc2/cyclinB came to 200 nM; against cdk2/cyclinE, 290 nM; on cdk2/cyclinA, 190 nM; on Cdk5/p25 it was 59 nM; at cdk4/D, 70 nM.
Regarding `O=c1ccc2cnc(Nc3ccc(O)c(CN4CCOCC4)c3)nc2n1C1CCCC1` [Example 550, 8-Cyclopentyl-2-(4-hydroxy-3-morpholin-4-ylmethyl-phenylamino)-8H-pyrido[2,3-d]pyrimidin-7-one], the IC50 came to 510 nM against cdc2/cyclinB; 110 nM on cdk2/cyclinE; 200 nM against cdk2/cyclinA; 190 nM on Cdk5/p25; 310 nM at cdk4/D.
For `O=c1ccc2cnc(Nc3ccc(O)c([N+](=O)[O-])c3)nc2n1C1CCCC1` [Example 551, 8-Cyclopentyl-2-(4-hydroxy-3-nitro-phenylamino)-8H-pyrido[2,3-d]pyrimidin-7-one], in that order: 36 nM, 16 nM, 14 nM, 55 nM and 290 nM.
Consider `CC1Nc2ccc(Nc3ncc4ccc(=O)n(C5CCCC5)c4n3)cc2C1C` (stereo not drawn) [Example 552, 8-Cyclopentyl-2-(2,3-dimethyl-2,3-dihydro-1H-indol-5-ylamino)-8H-pyrido[2,3-d]pyrimidin-7-one], for which the IC50 against cdc2/cyclinB is 48 nM; on cdk2/cyclinE, 150 nM; on cdk2/cyclinA it was 210 nM; against Cdk5/p25, 54 nM; at cdk4/D it was 180 nM.
The corresponding values for `O=c1[nH]c2cc(Nc3ncc4ccc(=O)n(C5CCCC5)c4n3)ccc2o1` [Example 554, 8-Cyclopentyl-2-(2-oxo-2,3-dihydro-benzoxazol-5-ylamino)-8H-pyrido[2,3-d]pyrimidin-7-one] are 169 nM, 152 nM, 148 nM, 32 nM and 230 nM.
Take `Cc1ccc(Nc2ncc3ccc(=O)n(C4CCCC4)c3n2)cc1NS(C)(=O)=O` [Example 555, N-[5-(8-Cyclopentyl-7-oxo-7,8-dihydro-pyrido[2,3-d]pyrimidin-2-ylamino)-2-methyl-phenyl]-methanesulfonamide]: the IC50 against cdc2/cyclinB turned out to be 220 nM; on cdk2/cyclinE, 99 nM; at cdk2/cyclinA it was 160 nM; on Cdk5/p25 it was 60 nM; on cdk4/D, 69 nM.
The corresponding values for `O=C1CSc2ccc(Nc3ncc4ccc(=O)n(C5CCCC5)c4n3)cc2N1` [Example 556, 8-Cyclopentyl-2-(3-oxo-3,4-dihydro-2H-1,4-benzothiazin-6-ylamino)-8H-pyrido[2,3-d]pyrimidin-7-one] are 30 nM, 40 nM, 16 nM, 9 nM and 19 nM.

(Values after patent US20040224958A1, “Pyridopyrimidinone derivatives for treatment of neurodegenerative disease” (priority 2000, published 2004).)
